Test results published in US8937089B2, “Synergistic mixtures of anthranilamide invertebrate pest control agents” (priority 2004, dated 2015).

Experiments:
Test in all cases: whole plant or invertebrate
Type in all cases: in vivo
[1] = system: green peach aphid (Myzus persicae Sulzer); conditions: Green Peach Aphid
In short: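 Compounds formulated in 10% acetone/water with 300 ppm X-77 surfactant were atomized onto aphid-infested radish seedlings, with three replicates per treatment. Infestation was 30–40 aphids transferred on excised leaf pieces, covering contact and systemic exposure. Test units stayed 6 days in a growth chamber at 19–21 °C and 50–70% relative humidity.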

[2] = system: potato leafhopper (Empoasca fabae Harris); conditions: alone
In short: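 Bean plants (5–6 days old, one primary leaf excised) were sprayed with 1 mL of compound in 10% acetone/water with 300 ppm X-77 surfactant, 3 replicates. After drying for 1 h, each unit was infested with 5 adult leafhoppers. Units were held 6 days at 19–21 °C and 50–70% RH.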

[3] = system: corn planthopper (Peregrines maidis); conditions: Corn Plant Hopper
In short: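 Compounds in 10% acetone/90% water with 300 ppm X-77 surfactant sprayed (3 replications) onto 3- to 4-day-old corn plants, dried 1 h, then infested with 10–20 corn planthopper nymphs aged 18–20 days. Held 6 days at 19-21° C. and 50-70% relative humidity; contact and/or systemic control assessed.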

[4] = system: silverleaf whitefly (Bemisia argentifolii Bellows and Perring); conditions: Table 2B
In short: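 Whitefly-egg-infested 12–14-day-old cotton plants sprayed with compound in 10% acetone/90% water plus 300 ppm non-ionic surfactant, in triplicate. Plants then held 13 days at 28 °C and 50–70% relative humidity before mortality assessment.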

[5] = system: western flower thrip (Frankliniella occidentalis Pergande); conditions: single compound, spray, 7 days
In short: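 Compounds in 10% acetone/90% water with 300 ppm non-ionic surfactant were sprayed onto 5- to 7-day-old bean plants, 3 replicates. After 1 h drying, 22–27 adult thrips were added per unit. Units were held 7 days at 25° C, 45–55% RH, assessing contact and/or systemic control.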

[6] = system: diamondback moth (Plutella xylostella); conditions: Plutella xylostella, in Brassica oleracea, read-out: % mortality (obs)
Procedure: The test compounds were dissolved in water. […] Serial dilutions were made to obtain the appropriate concentrations. To obtain the desired mixture concentrations of each compound, twice the desired concentration of each of the two mixture partner compounds were mixed together in equal volumes.
The diluted solutions of the test compounds were sprayed to run-off on three-week-old tomato plants. The plants were placed on a rotating turntable sprayer (10 rpm). Test solutions were applied using a flat fan air-assisted nozzle (Spraying Systems 122440) at 10 psi (69 kPa). […] The leaves were cut into pieces, which were placed singly into 5.5 cm-by-3.5 cm cells of a sixteen-cell plastic tray. Each cell contained a 2.5-cm square of moistened chromatography paper to prevent desiccation. One insect was placed in each cell. There two trays per treatment. Trays were held in the growth chamber at 25° C., 16-hour light:8-hour dark, 60% relative humidity for 4 days.
For evaluating control of diamondback moth (Plutella xylostella), cabbage (var. Stonehead) plants were grown in Metromix potting soil in 10-cm pots in aluminum trays to test size (28 days, 3-4 full leaves) the plants were sprayed to the point of runoff using the turntable sprayer as described in Test I. Test compounds were formulated and sprayed on test plants as described for Test I. After drying for 2 hours, the treated leaves were excised and infested with one cabbage looper per cell and covered. The test units were placed on trays and put in a growth chamber at 25° C. and 60% relative humidity for 4 days.

[7] = system: cotton melon aphid (Aphis gossypii Glover)
In short: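 Cotton plants (6–7 days old) pre-infested with 30–40 aphids by cut-leaf method, sprayed with compound (ppm) in 10% acetone/90% water with 300 ppm X-77 surfactant, three replicates. Held 6 days at 19–21 °C, 50–70% RH; contact and/or systemic control assessed.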

Work on `Cc1ccc(/N=C/N(C)/C=N/c2ccc(C)cc2C)c(C)c1` [Amitraz] yielded a mortality at 10 ppm ([1]; Myzus persicae, in Raphanus sativus, rate 10 ppm, read-out: % mortality (obs)) of 16%, a mortality at 100 ppm ([1]; Myzus persicae, in Raphanus sativus, rate 100 ppm, read-out: % mortality (obs)) of 12% and a mortality at 1000 ppm ([1]; Myzus persicae, in Raphanus sativus, rate 1000 ppm, read-out: % mortality (obs)) of 34%. For the same molecule, the mortality at 10 ppm ([2]; Empoasca fabae, rate 10 ppm, read-out: % mortality (obs)) was 0%, the mortality at 100 ppm ([2]; Empoasca fabae, rate 100 ppm, read-out: % mortality (obs)) was 7% and the mortality at 1000 ppm ([2]; Empoasca fabae, rate 1000 ppm, read-out: % mortality (obs)) was 13%. It also gave a mortality at 5 ppm ([3]; rate 5 ppm, read-out: % mortality (obs)) of 6%, a mortality at 10 ppm ([3]; rate 10 ppm, read-out: % mortality (obs)) of 3% and a mortality at 50 ppm ([3]; rate 50 ppm, read-out: % mortality (obs)) of 5%. The mortality at 500 ppm ([4]; Bemisia argentifolii, in Gossypium hirsutum, rate 500 ppm, read-out: % mortality (obs)) was 5%, the mortality at 1000 ppm ([4]; Bemisia argentifolii, in Gossypium hirsutum, rate 1000 ppm, read-out: % mortality (obs)) was 0% and the mortality at 2000 ppm ([4]; Bemisia argentifolii, in Gossypium hirsutum, rate 2000 ppm, read-out: % mortality (obs)) was 0%. The mortality at 10 ppm ([5]; Frankliniella occidentalis, 168 h, rate 10 ppm, read-out: % mortality (obs)) was 40%, the mortality at 100 ppm ([5]; Frankliniella occidentalis, 168 h, rate 100 ppm, read-out: % mortality (obs)) was 30% and the mortality at 1000 ppm ([5]; Frankliniella occidentalis, 168 h, rate 1000 ppm, read-out: % mortality (obs)) was 20%. It also gave a mortality at 10 ppm ([6]; rate 10 ppm) of 70%, a mortality at 100 ppm ([6]; rate 100 ppm) of 20% and a mortality at 1000 ppm ([6]; rate 1000 ppm) of 50%. It also gave a mortality at 10 ppm ([7]; Aphis gossypii, rate 10 ppm, read-out: % mortality (obs)) of 20%, a mortality at 100 ppm ([7]; Aphis gossypii, rate 100 ppm, read-out: % mortality (obs)) of 35% and a mortality at 1000 ppm ([7]; Aphis gossypii, rate 1000 ppm, read-out: % mortality (obs)) of 29%.

For Chlorfenapyr, the “% mortality (obs)” value ([1]; rate 1.5 ppm) was 22%, the “% mortality (obs)” value ([1]; rate 7 ppm) was 36% and the “% mortality (obs)” value ([1]; rate 35 ppm) was 100%. The “% mortality (obs)” value ([2]; rate 1 ppm) was 73%, the “% mortality (obs)” value ([2]; rate 5 ppm) was 100% and the “% mortality (obs)” value ([2]; rate 20 ppm) was 100%. For the same molecule, the “% mortality (obs)” value ([3]; rate 1.5 ppm) was 31%, the “% mortality (obs)” value ([3]; rate 2.5 ppm) was 15% and the “% mortality (obs)” value ([3]; rate 3.5 ppm) was 11%. The “% mortality (obs)” value ([4]; rate 10 ppm) was 6%, the “% mortality (obs)” value ([4]; rate 100 ppm) was 14% and the “% mortality (obs)” value ([4]; rate 1000 ppm) was 18%. For the same molecule, the “% mortality (obs)” value ([5]; rate 5 ppm) was 40%, the “% mortality (obs)” value ([5]; rate 20 ppm) was 70% and the “% mortality (obs)” value ([5]; rate 150 ppm) was 90%. The “% mortality (obs)” value ([7]; rate 1 ppm) was 27%, the “% mortality (obs)” value ([7]; rate 10 ppm) was 57% and the “% mortality (obs)” value ([7]; rate 150 ppm) was 67%.

For Fipronil, the “% mortality (obs)” value ([1]; rate 2 ppm) was 17%, the “% mortality (obs)” value ([1]; rate 4 ppm) was 31% and the “% mortality (obs)” value ([1]; rate 8 ppm) was 50%. For the same molecule, the “% mortality (obs)” value ([2]; rate 0.5 ppm) was 7%, the “% mortality (obs)” value ([2]; rate 1 ppm) was 20% and the “% mortality (obs)” value ([2]; rate 1.5 ppm) was 27%. The “% mortality (obs)” value ([3]; rate 0.5 ppm) was 5%, the “% mortality (obs)” value ([3]; rate 1 ppm) was 41% and the “% mortality (obs)” value ([3]; rate 1.5 ppm) was 15%. The “% mortality (obs)” value ([4]; rate 50 ppm) was 1%, the “% mortality (obs)” value ([4]; rate 100 ppm) was 0% and the “% mortality (obs)” value ([4]; rate 1000 ppm) was 13%. For the same molecule, the “% mortality (obs)” value ([5]; rate 0.5 ppm) was 100%, the “% mortality (obs)” value ([5]; rate 2 ppm) was 100% and the “% mortality (obs)” value ([5]; rate 10 ppm) was 100%. For the same molecule, the “% mortality (obs)” value ([7]; rate 2 ppm) was 27%, the “% mortality (obs)” value ([7]; rate 4 ppm) was 44% and the “% mortality (obs)” value ([7]; rate 8 ppm) was 85%.

For Novaluron, the “% mortality (obs)” value ([1]; rate 250 ppm) was 14%, the “% mortality (obs)” value ([1]; rate 500 ppm) was 24% and the “% mortality (obs)” value ([1]; rate 1000 ppm) was 25%. For the same molecule, the “% mortality (obs)” value ([2]; rate 250 ppm) was 7%, the “% mortality (obs)” value ([2]; rate 500 ppm) was 7% and the “% mortality (obs)” value ([2]; rate 1000 ppm) was 0%. The “% mortality (obs)” value ([3]; rate 250 ppm) was 7%, the “% mortality (obs)” value ([3]; rate 500 ppm) was 5% and the “% mortality (obs)” value ([3]; rate 1000 ppm) was 100%. For the same molecule, the “% mortality (obs)” value ([4]; rate 2 ppm) was 2%, the “% mortality (obs)” value ([4]; rate 10 ppm) was 0% and the “% mortality (obs)” value ([4]; rate 250 ppm) was 28%. For the same molecule, the “% mortality (obs)” value ([5]; rate 1 ppm) was 50%, the “% mortality (obs)” value ([5]; rate 100 ppm) was 50% and the “% mortality (obs)” value ([5]; rate 1000 ppm) was 80%. For the same molecule, the “% mortality (obs)” value ([7]; rate 50 ppm) was 28%, the “% mortality (obs)” value ([7]; rate 250 ppm) was 30% and the “% mortality (obs)” value ([7]; rate 1000 ppm) was 29%.

For Pymetrozine, the “% mortality (obs)” value ([1]; rate 0.1 ppm) was 13%, the “% mortality (obs)” value ([1]; rate 0.5 ppm) was 41% and the “% mortality (obs)” value ([1]; rate 2 ppm) was 79%. The “% mortality (obs)” value ([2]; rate 2 ppm) was 0%, the “% mortality (obs)” value ([2]; rate 15 ppm) was 13% and the “% mortality (obs)” value ([2]; rate 200 ppm) was 60%. For the same molecule, the “% mortality (obs)” value ([3]; rate 2 ppm) was 51%, the “% mortality (obs)” value ([3]; rate 10 ppm) was 29% and the “% mortality (obs)” value ([3]; rate 30 ppm) was 89%. The “% mortality (obs)” value ([4]; rate 10 ppm) was 3%, the “% mortality (obs)” value ([4]; rate 100 ppm) was 7% and the “% mortality (obs)” value ([4]; rate 1000 ppm) was 52%. For the same molecule, the “% mortality (obs)” value ([5]; rate 10 ppm) was 100%, the “% mortality (obs)” value ([5]; rate 100 ppm) was 100% and the “% mortality (obs)” value ([5]; rate 1000 ppm) was 100%. The “% mortality (obs)” value ([7]; rate 0.1 ppm) was 22%, the “% mortality (obs)” value ([7]; rate 0.5 ppm) was 38% and the “% mortality (obs)” value ([7]; rate 2 ppm) was 62%.

With Pyridalyl the “% mortality (obs)” value ([1]; rate 1 ppm) was 18%, the “% mortality (obs)” value ([1]; rate 10 ppm) was 8% and the “% mortality (obs)” value ([1]; rate 20 ppm) was 3%. For the same molecule, the “% mortality (obs)” value ([2]; rate 0.5 ppm) was 13%, the “% mortality (obs)” value ([2]; rate 5 ppm) was 13% and the “% mortality (obs)” value ([2]; rate 50 ppm) was 7%. The “% mortality (obs)” value ([3]; rate 10 ppm) was 2%, the “% mortality (obs)” value ([3]; rate 100 ppm) was 6% and the “% mortality (obs)” value ([3]; rate 1000 ppm) was 11%. The “% mortality (obs)” value ([4]; rate 10 ppm) was 0%, the “% mortality (obs)” value ([4]; rate 25 ppm) was 0% and the “% mortality (obs)” value ([4]; rate 100 ppm) was 0%. For the same molecule, the “% mortality (obs)” value ([5]; rate 5 ppm) was 30%, the “% mortality (obs)” value ([5]; rate 50 ppm) was 60% and the “% mortality (obs)” value ([5]; rate 500 ppm) was 100%. The “% mortality (obs)” value ([7]; rate 1 ppm) was 22%, the “% mortality (obs)” value ([7]; rate 1.5 ppm) was 34% and the “% mortality (obs)” value ([7]; rate 2 ppm) was 32%.

With Pyriproxyfen the “% mortality (obs)” value ([1]; rate 10 ppm) was 23%, the “% mortality (obs)” value ([1]; rate 100 ppm) was 12% and the “% mortality (obs)” value ([1]; rate 1000 ppm) was 26%. The “% mortality (obs)” value ([2]; rate 10 ppm) was 13%, the “% mortality (obs)” value ([2]; rate 100 ppm) was 0% and the “% mortality (obs)” value ([2]; rate 1000 ppm) was 7%. The “% mortality (obs)” value ([3]; rate 10 ppm) was 0%, the “% mortality (obs)” value ([3]; rate 100 ppm) was 8% and the “% mortality (obs)” value ([3]; rate 1000 ppm) was 12%. For the same molecule, the “% mortality (obs)” value ([4]; rate 10 ppm) was 100%, the “% mortality (obs)” value ([4]; rate 15 ppm) was 100% and the “% mortality (obs)” value ([4]; rate 20 ppm) was 100%. The “% mortality (obs)” value ([5]; rate 10 ppm) was 100%, the “% mortality (obs)” value ([5]; rate 100 ppm) was 100% and the “% mortality (obs)” value ([5]; rate 1000 ppm) was 100%. The “% mortality (obs)” value ([7]; rate 10 ppm) was 14%, the “% mortality (obs)” value ([7]; rate 100 ppm) was 28% and the “% mortality (obs)” value ([7]; rate 1000 ppm) was 33%.

In the case of Thiacloprid, the “% mortality (obs)” value ([1]; rate 0.2 ppm) is reported as 13%, the “% mortality (obs)” value ([1]; rate 0.3 ppm) is reported as 68% and the “% mortality (obs)” value ([1]; rate 0.4 ppm) is reported as 42%. The “% mortality (obs)” value ([2]; rate 0.2 ppm) was 73%, the “% mortality (obs)” value ([2]; rate 0.5 ppm) was 93% and the “% mortality (obs)” value ([2]; rate 1.5 ppm) was 80%. For the same molecule, the “% mortality (obs)” value ([3]; rate 0.3 ppm) was 6%, the “% mortality (obs)” value ([3]; rate 3 ppm) was 100% and the “% mortality (obs)” value ([3]; rate 30 ppm) was 100%. For the same molecule, the “% mortality (obs)” value ([4]; rate 15 ppm) was 40%, the “% mortality (obs)” value ([4]; rate 25 ppm) was 83% and the “% mortality (obs)” value ([4]; rate 35 ppm) was 61%. The “% mortality (obs)” value ([5]; rate 1 ppm) was 20%, the “% mortality (obs)” value ([5]; rate 100 ppm) was 30% and the “% mortality (obs)” value ([5]; rate 3000 ppm) was 40%. For the same molecule, the “% mortality (obs)” value ([7]; rate 0.3 ppm) was 50%, the “% mortality (obs)” value ([7]; rate 1.5 ppm) was 100% and the “% mortality (obs)” value ([7]; rate 6 ppm) was 100%.
